Data as given in PMC6753678, “Fueling Open Innovation for Malaria Transmission-Blocking Drugs: Hundreds of Molecules Targeting Early Parasite Mosquito Stages” (Frontiers in Microbiology, 2019).
pIC50: −log10 of the molar value. Read-outs that look alike come from different tables or passages of the source.

How the values were obtained:
HepG2 cells [1] = experiment: HepG2 cytotoxicity assay; conditions: HepG2 cytotoxicity unified across the three screens
Procedure, shortened: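 Cells at 2,500 per well in MEM with 10% fetal bovine serum and 1% NEAA were exposed to test compounds for 48 h at 37°C, 5% CO2. Viability was read by fluorescence, with percent inhibition calculated against 50 μM doxorubicin (positive) and DMSO (negative) controls.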

[2] = system: P. falciparum female gametocytes; design: method as in Miguel-Blanco et al 2017; conditions: TCAMS screen comparison; ref Miguel-Blanco et al 2017; read-out: Pf FGAA IC50; cited from earlier work
[3] = system: P. falciparum female gametocytes; experiment: P. falciparum female gametogenesis assay (Pf FGAA); conditions: 1: YES; 0: NO
HepG2 cells [4] = conditions: cited from earlier work
[5] = system: P. falciparum late stage (stages IV-V) gametocytes; design: method as in Almela et al 2016; conditions: TCAMS screen comparison; ref Almela et al 2016; read-out: Pf GCT ATP IC50; cited from earlier work
[6] = system: P. berghei ookinete development; conditions: primary screen at 1 μM
[7] = system: P. falciparum late stage (stages IV-V) gametocytes; experiment: P. falciparum late stage gametocyte ATP depletion assay (Pf GC-ATP); conditions: 1: YES; 0: NO
[8] = value reported with the Pf FGAA screen, ref Miguel-Blanco et al 2017
[9] = value reported with the Pf GCT ATP screen, ref Almela et al 2016

Structure (SMILES)	Unified cytotox (HepG2 cells [1]) [µM]	pIC50 [2]	Is compound selective in assay? Pf FGAA active? [3]	HepG2 cytoxicity (HepG2 cells [4]; [8]) [µM]	HepG2 cytoxicity (HepG2 cells [4]; [9]) [µM]	pIC50 [5]	% inhibition, Replicate A ([6]; replicate A) [%]	% inhibition, Replicate B ([6]; replicate B) [%]	Is compound selective in assay? Pf GC-ATP active? [7]
Nc1nc(N)c2c(ccc3c2ccn3Cc2ccc(-c3ccccc3)cc2)n1 [TCMDC-137813]	1.38	5.70	0 (0: NO)	1.16	1.6	5.84	53.67	5.32	0 (0: NO)
CN(CCCCN)Cc1ccc(-c2ccc(Cl)cc2)cc1 [TCMDC-140123]	3.77	5.80	0 (0: NO)	3.55	3.99	6.39	–	–	0 (0: NO)
CN1CCN(CCCN(Cc2cccc(-c3ccc(CNC4CCCC4)cc3)c2)C(=O)/C=C/c2ccccc2)CC1.O=C(O)C(F)(F)F [TCMDC-140544]	7.04	5.87	0 (0: NO)	7.70	6.39	6.13	–	–	0 (0: NO)
CN1CCN(CCCN(Cc2cccc(-c3ccc(CNCCc4ccccc4)cc3)c2)C(=O)c2cccs2)CC1.O=C(O)C(F)(F)F [TCMDC-140568]	5.79	5.77	0 (0: NO)	5.98	5.6	6.05	–	–	0 (0: NO)
CN1CCN(CCCNCc2cccc(-c3ccc(CNCCc4ccccc4)cc3)c2)CC1 [TCMDC-140643]	13.08	5.72	0 (0: NO)	7.92	18.24	6.39	–	–	1 (1: YES)
COc1cc(NCCCNCc2cn(Cc3cc(Br)cc(Br)c3)c3ccccc23)nc2ccccc12 [TCMDC-140677]	5.03	6.07	0 (0: NO)	3.94	6.13	6.23	–	–	0 (0: NO)
CN(C)CCCOc1ccc(CN2CCC(c3c[nH]c4ccc(NCC5CCCCC5)cc34)CC2)cc1.O=C(O)C(F)(F)F [TCMDC-140737]	6.14	6.25	1 (1: YES)	5.48	6.8	6.30	–	–	1 (1: YES)
CCN(CC)CCN(Cc1ccc(-c2ccc(C(F)(F)F)cc2)cc1)C(=O)Cn1cc(Cc2cnn(C)c2)c(=O)nc1/C=C/c1cccc(F)c1F [TCMDC-140964]	12.05	6.06	1 (1: YES)	9.69	14.4	6.77	–	–	1 (1: YES)
Cc1c(Cn2ncc(N3CCC(N)CC3)c(Cl)c2=O)cccc1NC(=O)Nc1ccc(-c2ccccc2)cc1.O=C(O)C(F)(F)F [TCMDC-141931]	18.70	5.96	1 (1: YES)	22.90	14.5	5.93	–	–	1 (1: YES)
Cl.Nc1c(I)cc(C(=O)Nc2ccc3nc4c(c(N)c3c2)CCCC4)cc1I [TCMDC-142289]	6.27	6.11	0 (0: NO)	4.52	8.03	6.39	–	–	1 (1: YES)
